In PubChem BioAssay (NCI):
Several values for one entry are separate records, joined by “and”; a condition that tells them apart may be missing. Identical values can stand only once.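 How tested: cells in 96-well plates exposed to compound for 48 hours at five concentrations. GI50 = concentration required for 50% inhibition of growth. TGI denotes the concentration required for complete inhibition of growth.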

How the values were obtained:
Assay in all cases: DTP human tumour cell line panel, 48 h
A498 renal = tested on: A498 renal
DLD-1 colon = tested on: DLD-1 colon
DMS 114 small cell lung = tested on: DMS 114 small cell lung
DMS 273 small cell lung = tested on: DMS 273 small cell lung
EKVX NSCLC = tested on: EKVX NSCLC
HOP-18 NSCLC = tested on: HOP-18 NSCLC
KM20L2 colon = tested on: KM20L2 colon
LXFL 529 NSCLC = tested on: LXFL 529 NSCLC
M19-MEL melanoma = tested on: M19-MEL melanoma
SN12K1 renal = tested on: SN12K1 renal
SNB-78 CNS = tested on: SNB-78 CNS
XF 498 CNS = tested on: XF 498 CNS
RXF-631 renal = tested on: RXF-631 renal

`Cc1ccc2[nH]c3c(C)c4ccncc4c(C)c3c2c1` gave a TGI (A498 renal) of 2.91 µM, a TGI (DLD-1 colon) of 2.34 µM and a TGI (DMS 114 small cell lung) of 2.71 µM. It also gave a TGI (DMS 273 small cell lung) of 2.13 µM, a TGI (EKVX NSCLC) of 2.5 µM and a TGI (HOP-18 NSCLC) of 4.6 µM. It also gave a TGI (KM20L2 colon) of 5.57 µM, a TGI (LXFL 529 NSCLC) of 2.42 µM and a TGI (M19-MEL melanoma) of 2.75 µM. It also gave a TGI (SN12K1 renal) of 2.29 µM, a TGI (SNB-78 CNS) of 4.64 µM and a TGI (XF 498 CNS) of 3 µM.
`CNC(=O)CN1CC(=O)N(C)C(=O)C1` gave a TGI (DLD-1 colon) of over 100 µM, a TGI (DMS 273 small cell lung) of over 100 µM and a TGI (KM20L2 colon) of over 100 µM. The TGI (LXFL 529 NSCLC) was over 100 µM, the TGI (M19-MEL melanoma) was over 100 µM and the TGI (SNB-78 CNS) was over 100 µM. The TGI (XF 498 CNS) was over 100 µM.
`O=C(/C=C/c1ccc(Cl)c(Cl)c1)Oc1ccc(/C=C2\CCCCC2=O)cc1` was tested, and the TGI (A498 renal) was over 100 µM and the TGI (EKVX NSCLC) was over 100 µM.
Work on `NC(=O)N(O)c1cccc(Br)c1` yielded a TGI (A498 renal) of over 100 µM and a TGI (EKVX NSCLC) of over 100 µM.
With `Cc1cc(=Nc2ccc3c(c2)c(N)cc(C)[n+]3C)nc(N)n1C` the TGI (A498 renal) was over 100 µM and the TGI (EKVX NSCLC) was over 100 µM.
`O=C1c2ccccc2C(=O)N1c1ccc(OCCN2CCCCC2)cc1` showed a TGI (A498 renal) of over 100 µM and a TGI (EKVX NSCLC) of over 100 µM.
With `c1ccc(-c2cc(-c3cc(-c4ccccc4)n(-c4ccccc4)n3)nn2-c2ccccc2)cc1` the TGI (A498 renal) was over 100 µM and the TGI (EKVX NSCLC) was over 100 µM.
`N#Cc1c(-c2ccc(Cl)cc2)c(C#N)c(=O)n(NS(=O)(=O)c2ccccc2)c1-c1ccccc1` gave a TGI (A498 renal) of over 25 µM.
With `C[C@@H]1CCC2[C@@H](C)C(=O)O[C@@H]3C4C[C@@H]1[C@@]23OO[C@@]4(C)O` (stereo partly drawn) the TGI (A498 renal) was over 100 µM and the TGI (EKVX NSCLC) was over 100 µM.
`C=CCn1c(=O)c(C)cn(/C(=C/C(=O)OCC)C(=O)OCC)c1=O` was tested, and the TGI (A498 renal) was 45.1 µM and the TGI (EKVX NSCLC) was 28.7 µM.
Molecule `CCCCCCCCCN1CCC(=O)C(C(=O)OC)C1` (stereo not drawn) has a TGI (A498 renal) of 52.7 µM and a TGI (EKVX NSCLC) of 34 µM.
`CC1=C(C(=O)OC(C)C)C(c2ccccc2[N+](=O)[O-])C(C(=O)OC(CO[N+](=O)[O-])CO[N+](=O)[O-])=C(C)N1` (stereo not drawn) was tested, and the TGI (EKVX NSCLC) was 18.8 µM.
With `CSCCC(NC(c1ccccc1)c1ccccc1)[P+](=O)O` (stereo not drawn) the TGI (EKVX NSCLC) was over 100 µM.
Molecule `Nc1ccn(C2OC(COP(=O)(O)Oc3ccccc3)C(O)C2O)c(=O)n1` (stereo not drawn) has a TGI (A498 renal) of over 100 µM, a TGI (DLD-1 colon) of over 100 µM and a TGI (DMS 114 small cell lung) of over 100 µM. For the same molecule, the TGI (DMS 273 small cell lung) was over 100 µM, the TGI (EKVX NSCLC) was over 100 µM and the TGI (HOP-18 NSCLC) was 98.1 µM. The TGI (KM20L2 colon) was over 100 µM, the TGI (M19-MEL melanoma) was over 100 µM and the TGI (SN12K1 renal) was over 100 µM. For the same molecule, the TGI (SNB-78 CNS) was over 100 µM.
With `O/N=C\c1cc(O)c(O)c(/C=N/O)c1` the TGI (A498 renal) was over 100 µM and the TGI (EKVX NSCLC) was over 100 µM.
`Nc1ncc(Cc2nc3ccccc3s2)s1` gave a TGI (EKVX NSCLC) of over 100 µM.
In the case of `COc1cc2c(cc1OC)CCN=C2`, the TGI (A498 renal) is reported as over 100 µM.
For `CC(=O)Oc1c(OC(C)=O)c(-c2ccc(O)c(O)c2)c(O)c(O)c1-c1ccc(O)cc1`, the TGI (A498 renal) was over 100 µM, the TGI (DLD-1 colon) was over 100 µM and the GI50 (DMS 114 small cell lung) was 19.1 µM. For the same molecule, the TGI (DMS 114 small cell lung) was 44 µM and 57.4 µM, the GI50 (DMS 273 small cell lung) was 67.1 µM and the TGI (DMS 273 small cell lung) was over 100 µM. For the same molecule, the TGI (EKVX NSCLC) was over 100 µM, the TGI (HOP-18 NSCLC) was over 100 µM and the GI50 (KM20L2 colon) was 40.7 µM. The TGI (KM20L2 colon) was over 100 µM, the GI50 (M19-MEL melanoma) was 18.1 µM and the TGI (M19-MEL melanoma) was 53.7 µM and 68.5 µM. It also gave a GI50 (SN12K1 renal) of 48.6 µM, a TGI (SN12K1 renal) of over 100 µM and a GI50 (SNB-78 CNS) of over 100 µM. The TGI (SNB-78 CNS) was over 100 µM, the GI50 (XF 498 CNS) was 46 µM and the TGI (XF 498 CNS) was over 100 µM.
Work on `COc1cc2c(cc1OC)C(Cl)C(c1cc(OC)c(OC)c(OC)c1)=C2Cl` (stereo not drawn) yielded a TGI (A498 renal) of 61.1 µM, a TGI (DLD-1 colon) of 51.4 µM and a TGI (DMS 114 small cell lung) of 26.2 µM. The TGI (DMS 273 small cell lung) was 34.6 µM, the TGI (EKVX NSCLC) was 79.4 µM and the TGI (HOP-18 NSCLC) was 32.3 µM. It also gave a TGI (KM20L2 colon) of 36.6 µM, a TGI (LXFL 529 NSCLC) of 24.6 µM and a TGI (M19-MEL melanoma) of 28.7 µM. For the same molecule, the TGI (RXF-631 renal) was 38.2 µM and the TGI (SNB-78 CNS) was 46.4 µM.
Molecule `CC(C)(C)OC(=O)N1CCC23CCCC2C(=O)CC=C13` (stereo not drawn) has a TGI (EKVX NSCLC) of over 100 µM.
In the case of `COc1cc2c(c(OC)c1OC)C(=O)CC2N` (stereo not drawn), the TGI (A498 renal) is reported as over 100 µM and the TGI (EKVX NSCLC) is reported as over 100 µM.
Molecule `CO[C@H]1O[C@@H]2CO[C@@H](c3ccccc3)O[C@H]2C[C@]12CCC/C=C\CO2` has a TGI (A498 renal) of 37.2 µM and a TGI (EKVX NSCLC) of 25.8 µM.
Work on `NNC(=O)c1n[nH]nc1SSc1n[nH]nc1C(=O)NN` yielded a TGI (EKVX NSCLC) of over 100 µM.
For `COC(=O)CCCCC/C(=C\C(=O)C(Cl)(Cl)Cl)OC`, the TGI (A498 renal) was over 100 µM and the TGI (EKVX NSCLC) was 56.8 µM.
Molecule `CN1OC(=O)N(C)C1c1ccccc1` (stereo not drawn) has a TGI (A498 renal) of over 100 µM, a TGI (DLD-1 colon) of over 100 µM and a TGI (DMS 114 small cell lung) of over 100 µM. For the same molecule, the TGI (DMS 273 small cell lung) was over 100 µM, the TGI (EKVX NSCLC) was over 100 µM and the TGI (HOP-18 NSCLC) was over 100 µM. The TGI (KM20L2 colon) was over 100 µM, the TGI (M19-MEL melanoma) was over 100 µM and the TGI (SN12K1 renal) was over 100 µM. The TGI (SNB-78 CNS) was over 100 µM and the TGI (XF 498 CNS) was over 100 µM.
`CC(C)(C)C=C=C(C(C)(C)C)P(=O)(O)O` gave a TGI (A498 renal) of over 100 µM and a TGI (EKVX NSCLC) of over 100 µM.
`O=C(/C=C/c1ccc(O)c(O)c1)OCCOC(=O)/C=C/c1ccc(O)c(O)c1` gave a TGI (A498 renal) of over 100 µM and a TGI (EKVX NSCLC) of 83.1 µM.
In the case of `Cc1ccc(S(=O)(=O)N/N=C2\C=C[C@]3(CC2)C(=O)N(C)c2ccccc23)cc1`, the TGI (A498 renal) is reported as over 100 µM and the TGI (EKVX NSCLC) is reported as over 100 µM.
Molecule `CC/C(Cl)=N\OC(=O)Nc1ccc(C#N)cc1` has a TGI (A498 renal) of 30.3 µM and a TGI (EKVX NSCLC) of 26.3 µM.
`Cc1ccc(C2=Nc3c(N)nc(N)nc3NC(c3ccccc3)C2)cc1` (stereo not drawn) was tested, and the TGI (A498 renal) was 23.6 µM and the TGI (EKVX NSCLC) was 27.2 µM and 28.2 µM.
`CC1(C)CC(=O)c2c(nc3ccc4ccccc4c3c2-c2ccc(NC(=O)CCCCC(=O)Nc3ccc(-c4c5c(nc6ccc7ccccc7c46)CC(C)(C)CC5=O)cc3)cc2)C1` was tested, and the TGI (A498 renal) was over 100 µM and the TGI (EKVX NSCLC) was over 100 µM.
For `CCN(CC)CCNc1ccc(C)c2sc3ccc(O)cc3c(=O)c12`, the TGI (A498 renal) was 4.27 µM, the TGI (DLD-1 colon) was 3.47 µM and the TGI (DMS 114 small cell lung) was 2.27 µM. It also gave a TGI (DMS 273 small cell lung) of 1.91 µM, a TGI (EKVX NSCLC) of 25.9 µM and a TGI (HOP-18 NSCLC) of 5.94 µM. For the same molecule, the TGI (KM20L2 colon) was 5.46 µM, the TGI (LXFL 529 NSCLC) was 2.54 µM and the TGI (M19-MEL melanoma) was 2.36 µM. It also gave a TGI (SNB-78 CNS) of 7.88 µM and a TGI (XF 498 CNS) of 2.56 µM.
